Experimental data from ChEMBL document CHEMBL4602694, “Suppression of Drug-Resistant Non-Small-Cell Lung Cancer with Inhibitors Targeting Minichromosomal Maintenance Protein” (J Med Chem, 2020).
Calls of active or inactive are those of the source. No cut-off for these calls is given here.

How the values were obtained:
[1] = molecular target: DNA replication licensing factor MCM7 (Homo sapiens) (UniProt P33993); test: Induction of ubiquitination of MCM7 in human NCI-H1975 cells incubated for 72 hrs by immunoblot analysis (reference value: 1); assay type: cell-based
NCI-H1975 [2] = test: Antiproliferative activity against human NCI-H1975 cells knock out SiRNA MCM2 assessed as reduction in cell viability incubated for 72 hrs by SRB assay relative to control; assay type: functional
NCI-H1975 [3] = test: Cell cycle arrest in human NCI-H1975 cells assessed as accumulation in G2/M phase at 140 nM incubated for 72 hrs by propidium iodide base flow cytometry analysis (reference value: 17 %); assay type: functional
[4] = molecular target: T1, DNA replication licensing factor MCM3 (Homo sapiens) (UniProt P25205); test: Induction of ubiquitination of MCM3 in human NCI-H1975 cells incubated for 72 hrs by immunoblot analysis (reference value: 1); assay type: cell-based
T1 sequence (whole entry): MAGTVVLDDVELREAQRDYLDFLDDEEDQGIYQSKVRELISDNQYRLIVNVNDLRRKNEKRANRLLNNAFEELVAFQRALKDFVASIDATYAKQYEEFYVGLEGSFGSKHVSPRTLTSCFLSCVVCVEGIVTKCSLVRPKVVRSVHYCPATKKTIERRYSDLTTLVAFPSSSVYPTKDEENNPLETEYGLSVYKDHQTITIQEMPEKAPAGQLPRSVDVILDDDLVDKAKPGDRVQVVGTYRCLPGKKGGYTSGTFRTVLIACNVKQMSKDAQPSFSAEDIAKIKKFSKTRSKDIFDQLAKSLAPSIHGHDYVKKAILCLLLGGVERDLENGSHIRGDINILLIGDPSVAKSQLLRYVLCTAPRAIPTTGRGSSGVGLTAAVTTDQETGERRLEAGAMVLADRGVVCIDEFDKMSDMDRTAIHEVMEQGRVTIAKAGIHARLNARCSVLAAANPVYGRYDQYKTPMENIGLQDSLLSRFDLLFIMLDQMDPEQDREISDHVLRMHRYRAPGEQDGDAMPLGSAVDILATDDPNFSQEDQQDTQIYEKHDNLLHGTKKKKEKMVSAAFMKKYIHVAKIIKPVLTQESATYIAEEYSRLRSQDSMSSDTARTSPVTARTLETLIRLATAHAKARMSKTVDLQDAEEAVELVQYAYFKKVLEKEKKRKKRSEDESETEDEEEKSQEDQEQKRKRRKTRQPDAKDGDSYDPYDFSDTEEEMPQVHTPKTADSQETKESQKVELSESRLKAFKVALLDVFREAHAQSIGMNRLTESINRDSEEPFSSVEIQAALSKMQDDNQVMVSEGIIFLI

PC-9 = test: Antiproliferative activity against human PC9 cells assessed as reduction in cell viability incubated for 72 hrs by SRB assay; assay type: functional, cell-based; settings: PC-9, 72 h
NCI-H1975 [5] = test: Antiproliferative activity against human NCI-H1975 cells harboring FLAG-tagged MCM2 Q341A mutant assessed as reduction in cell viability incubated for 72 hrs by SRB assay; assay type: functional, cell-based; settings: NCI-H1975, 72 h
[6] = Selectivity index, ratio of IC50 for human bronchial epithelial cells to IC50 for human PC9 cells; assay type: toxicity; settings: human bronchial epithelial cells versus PC9 cells, read-out: Ratio IC50
[7] = molecular target: DNA replication licensing factor MCM2 (Homo sapiens) (UniProt P49736); test: Induction of ubiquitination of MCM2 in human NCI-H1975 cells incubated for 24 hrs by immunoblot analysis (reference value: 1); assay type: cell-based
[8] = molecular target: DNA replication licensing factor MCM2 (Homo sapiens) (UniProt P49736); test: Induction of ubiquitination of MCM2 in human NCI-H1975 cells in presence of MLN4924 incubated for 24 hrs followed by MLN4924 addition and measured after 6 hrs by immunoblot analysis; assay type: cell-based
NCI-H1975 [9] = test: Induction of apoptosis in human NCI-H1975 cells assessed as increase in cleaved PARP1 level at 140 nM incubated upto 72 hrs by immunoblotting analysis; assay type: functional, cell-based
[10] = Selectivity index, ratio of IC50 for human bronchial epithelial cells to IC50 for human CL1-5 cells; assay type: toxicity; settings: human bronchial epithelial cells versus CL1-5 cells, read-out: Ratio IC50
NCI-H1975 [11] = test: Induction of apoptosis in human NCI-H1975 cells assessed as increase in cleaved caspase 8 level at 140 nM incubated upto 72 hrs by immunoblotting analysis; assay type: functional, cell-based
NCI-H1975 [12] = test: Antitumor activity against human NCI-H1975 cells xenografted in athymic nude BALB/c mouse assessed as tumor growth at 1 mg/kg, ip administered for 4 weeks (reference value: 1217 +/- 516.6 cu.mm); assay type: functional
[13] = Antiproliferative activity against human PC9IR cells assessed as reduction in cell viability incubated for 72 hrs by SRB assay; assay type: functional, cell-based
[14] = Toxicity in athymic nude BALB/c mouse xenografted with human NCI-H1975 cells assessed as effect on serum creatinine at 1 or 4 mg/kg, ip administered for 4 weeks; assay type: organism-based; settings: in vivo, 672 h
[15] = Toxicity in athymic nude BALB/c mouse xenografted with human NCI-H1975 cells assessed as effect on serum alanine transaminase at 1 or 4 mg/kg, ip administered for 4 weeks; assay type: organism-based; settings: in vivo, 672 h
[16] = molecular target: T2, DNA replication licensing factor MCM6 (Homo sapiens) (UniProt Q14566); test: Induction of ubiquitination of MCM6 in human NCI-H1975 cells incubated for 48 hrs by immunoblot analysis (reference value: 1); assay type: cell-based
T2 sequence (whole entry): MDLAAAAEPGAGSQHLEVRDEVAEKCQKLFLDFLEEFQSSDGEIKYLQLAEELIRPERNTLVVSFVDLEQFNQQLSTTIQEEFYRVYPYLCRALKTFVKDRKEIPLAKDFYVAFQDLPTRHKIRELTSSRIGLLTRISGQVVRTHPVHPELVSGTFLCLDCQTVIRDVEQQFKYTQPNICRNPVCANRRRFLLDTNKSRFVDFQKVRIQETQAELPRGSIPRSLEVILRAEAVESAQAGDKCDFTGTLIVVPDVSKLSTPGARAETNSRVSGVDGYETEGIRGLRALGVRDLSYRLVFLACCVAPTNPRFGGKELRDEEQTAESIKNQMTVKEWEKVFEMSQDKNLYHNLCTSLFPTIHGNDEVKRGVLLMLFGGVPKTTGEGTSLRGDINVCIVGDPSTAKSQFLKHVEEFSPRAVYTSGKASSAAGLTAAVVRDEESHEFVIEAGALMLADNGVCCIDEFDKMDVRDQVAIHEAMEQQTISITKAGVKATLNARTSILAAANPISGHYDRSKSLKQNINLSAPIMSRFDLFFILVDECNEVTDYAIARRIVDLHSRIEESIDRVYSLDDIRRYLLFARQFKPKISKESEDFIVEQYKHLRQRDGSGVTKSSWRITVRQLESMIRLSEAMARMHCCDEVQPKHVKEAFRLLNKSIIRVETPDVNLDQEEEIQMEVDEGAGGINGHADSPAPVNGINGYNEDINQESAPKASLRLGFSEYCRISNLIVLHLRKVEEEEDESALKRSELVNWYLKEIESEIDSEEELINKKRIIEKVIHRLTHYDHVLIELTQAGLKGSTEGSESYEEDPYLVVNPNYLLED

NCI-H1975 [17] = test: Cell cycle arrest in human NCI-H1975 cells assessed as accumulation in S phase at 140 nM incubated for 72 hrs by propidium iodide base flow cytometry analysis (reference value: 2 %); assay type: functional

Sequence of DNA replication licensing factor MCM2 (Homo sapiens) (P49736 whole entry): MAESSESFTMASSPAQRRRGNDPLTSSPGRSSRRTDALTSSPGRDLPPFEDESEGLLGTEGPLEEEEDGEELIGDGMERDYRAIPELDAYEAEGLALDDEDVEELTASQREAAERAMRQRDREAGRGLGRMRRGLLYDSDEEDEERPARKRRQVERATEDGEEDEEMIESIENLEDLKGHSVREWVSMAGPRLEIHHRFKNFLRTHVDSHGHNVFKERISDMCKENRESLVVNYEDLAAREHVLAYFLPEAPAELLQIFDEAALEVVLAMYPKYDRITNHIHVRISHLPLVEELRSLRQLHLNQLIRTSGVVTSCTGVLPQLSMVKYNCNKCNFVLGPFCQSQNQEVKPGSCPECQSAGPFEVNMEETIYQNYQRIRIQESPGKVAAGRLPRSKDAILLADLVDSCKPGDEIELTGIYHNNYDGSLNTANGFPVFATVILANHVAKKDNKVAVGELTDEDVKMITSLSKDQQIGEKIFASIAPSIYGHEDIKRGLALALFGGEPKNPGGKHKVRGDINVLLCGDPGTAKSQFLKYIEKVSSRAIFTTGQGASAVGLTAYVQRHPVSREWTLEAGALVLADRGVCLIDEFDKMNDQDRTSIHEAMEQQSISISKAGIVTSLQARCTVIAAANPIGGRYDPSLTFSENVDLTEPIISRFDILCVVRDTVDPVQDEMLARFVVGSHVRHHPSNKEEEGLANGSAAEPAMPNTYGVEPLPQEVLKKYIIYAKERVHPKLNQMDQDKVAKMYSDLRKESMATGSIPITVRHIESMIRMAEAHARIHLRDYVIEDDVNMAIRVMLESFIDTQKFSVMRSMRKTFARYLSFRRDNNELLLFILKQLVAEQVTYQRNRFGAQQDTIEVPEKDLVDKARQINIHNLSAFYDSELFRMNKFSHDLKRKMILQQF
Sequence of DNA replication licensing factor MCM7 (Homo sapiens) (P33993 whole entry): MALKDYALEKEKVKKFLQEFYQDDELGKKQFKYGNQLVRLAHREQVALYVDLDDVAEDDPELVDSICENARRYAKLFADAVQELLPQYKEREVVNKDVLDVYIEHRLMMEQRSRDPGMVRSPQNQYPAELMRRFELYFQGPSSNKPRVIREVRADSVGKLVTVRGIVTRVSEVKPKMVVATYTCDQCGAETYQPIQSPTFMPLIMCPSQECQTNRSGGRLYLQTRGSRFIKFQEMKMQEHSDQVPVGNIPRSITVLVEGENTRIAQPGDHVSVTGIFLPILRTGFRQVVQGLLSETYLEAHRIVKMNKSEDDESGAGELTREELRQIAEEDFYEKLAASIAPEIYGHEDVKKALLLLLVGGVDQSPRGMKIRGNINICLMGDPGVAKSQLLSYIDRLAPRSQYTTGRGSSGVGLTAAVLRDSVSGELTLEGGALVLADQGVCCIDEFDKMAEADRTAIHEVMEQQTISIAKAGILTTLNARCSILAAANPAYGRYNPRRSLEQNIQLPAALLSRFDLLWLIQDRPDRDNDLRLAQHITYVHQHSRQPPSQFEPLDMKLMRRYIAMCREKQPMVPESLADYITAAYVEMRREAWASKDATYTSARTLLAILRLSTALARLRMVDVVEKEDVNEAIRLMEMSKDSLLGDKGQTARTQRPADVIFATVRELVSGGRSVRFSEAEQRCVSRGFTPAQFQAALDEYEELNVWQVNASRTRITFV

For `Cc1oc2c(c1C(=O)NCCCn1ccnc1)C(=O)c1ccccc1C2=O`, the Activity [1] was 0.4, the “inhibition (INH)” value (NCI-H1975 [2]) was 33% and the Activity (NCI-H1975 [3]) was 38%. For the same compound, the Activity [4] was 0.1, the IC50 (PC-9) was under 100 nM and the IC50 (NCI-H1975 [5]) was 150 nM. The selectivity ratio [6] was over 10, the Activity [7] was 0.7 and the Activity [8] was “inactive”. The Activity (NCI-H1975 [9]) was “Active”, the selectivity ratio [10] was over 10 and the Activity (NCI-H1975 [11]) was “Active”. The Activity (NCI-H1975 [12]) was 701.2 mm3, the IC50 [13] was under 100 nM and the Activity [14] was “Non-Toxic”. For the same compound, the Activity [15] was “Non-Toxic”, the Activity [16] was 0.4 and the Activity (NCI-H1975 [17]) was 18%.
